Experiment in data set [1]: not given
The source holds these as a separate data set.

For orientation: logD means lipophilicity at a set pH, counting ionised and neutral species. Higher therefore signals a more lipophilic compound. What is called logP is the decadic logarithm of the partition coefficient of the neutral form, usually between octanol and water. Read a low logP as a more hydrophilic compound.

The compound `O=C(O)c1cccc(Cl)c1` registered a logD (pH 1.0) of 2.51.

In the case of `O=C(O)c1cccc(I)c1`, the logP in data set [1] is 3.

For `O=C(O)c1ccc(F)cc1`, the logP in data set [1] is 1.99.

For the compound `Nc1ccc(Br)cc1`, the log distribution coefficient (logD) (pH 13.0) stood at 2.

In data set [1], `Oc1ccc(I)cc1` displayed a logP of 2.82.

As for `Cc1cccc(N)c1`, the logD (pH 13.0) came out at 1.49.

Compound `Oc1cccc(Br)c1` displayed a logD (pH 1.0) of 2.59.

Under “pH 13.0”, `Nc1ccc(Cl)cc1` gave a logD of 1.8.

Regarding `Nc1cccc([N+](=O)[O-])c1`, the logD (pH 13.0) is 1.43.

As for `Cc1ccccc1N`, where the note is “pH 13.0”, the logD was 1.44.

`Nc1cccc(I)c1` had a pH-dependent lipophilicity (logD) (pH 13.0) of 2.86.

The values above are taken from the SangsterLogP compilation.
